# Laboratory results published in patent US9951039B2, “Pyrimidines for treatment of bacterial infections” (The Hong Kong Polytechnic University, priority 2016, dated 2018).
# Columns and labels:
# [1] = test system: S. aureus ATCC BAA-1720 (methicillin resistant); experiment: MIC against clinically isolated strain 3; type: cell-based; details: Staphylococcus aureus, ATCCBAA1720
# Experimental: (§1) Procedure of Antimicrobial susceptibility test: The MIC value of compounds was measured in the antimicrobial susceptibility test using the broth microdilution procedure in accordance with the CLSI guidelines.^21 Cation-adjusted Mueller Hinton broth (CA-MHB) was used for all the S. aureus strains in the assay. Cells in exponential phase of growth were diluted to approximately 5×10^5 cfu/mL. Stock solutions of each compound were freshly dissolved in dimethyl sulfoxide (DMSO). Then, serial dilutions of each compound in CA-MHB medium were added into 96-well microplate. The final percentage of DMSO in the assay was 1%. Control experiments were performed with 1% DMSO instead of the compound solution. After being incubated at 37° C. for 18 h, OD600 value of cells was measured on a microplate reader and the percentage of bacterial cell inhibition with respect to controls was calculated. The MIC value was defined as the lowest compound concentration at which the growth of bacteria was inhibited by ≥90%. Three independent assays were performed for each compound.
# (§2) Results: Three compounds, namely 14av_amine16, 14dv_amine16 and 14dv_amine06, were selected to be tested against nine in-house clinically isolated bacterial strains including S. aureus ATCC29247, which is an ampicillin resistant strain, S. aureus ATCC BAA-41, ATCC BAA-1717, ATCC BAA-1720, ATCC 43300 which are methicillin resistant strains and four USA300 strains, (#417, #757, #1799 and #2690), which are the predominant strain type of community-associated MRSA strains in the United States.
# [2] = test system: USA300 #2690 (community-associated MRSA); experiment: MIC against clinically isolated strain 9; type: cell-based, S. aureus; details: Staphylococcus aureus
# Experimental: as §1, §2
# [3] = test system: G. mellonella larvae; experiment: Toxicity in G. mellonella larvae; type: in vivo, Galleria mellonella; details: 0, 50 and 100 mg/Kg in 50% PEG in saline, no MRSA inoculation, 48-hours period
# Experimental: Procedure: Compound 14av_amine16 was tested in a Galleria mellonella model, which are an easy and inexpensive in vivo model with no ethical constraints for investigating antibacterial activity of a compound.^22 The G. mellonella model of S. aureus infection was used as previously described.^24 Briefly, 1 mL aliquots of overnight cultures of S. aureus 43300 were pelleted by centrifugation and washed with sterile PBS before being resuspended in 100 μL of PBS. G. mellonella larvae (N=10) that weighed 200-300 mg were then inoculated with 10 μL of S. aureus (2.5×10^6 CFU) into the last left proleg. Larvae were then treated with compounds at 1 h before bacterial inoculation. Treatments were performed in the same manner as infection, except that compounds were injected into the next left proleg moving toward the head of the larvae. […] Data was analyzed for statistical significance using a log rank and χ square test with 1 degree of freedom. Various concentrations of compound 14av_amine16 dissolved in 50% PEG in saline (0 mg/Kg, 50 mg/Kg and 100 mg/Kg) were injected into the hemocoel of last-instar G. mellonella larvae and survival was scored over time.
# To examine the feasibility of using G. mellonella for compound 14av_amine16 toxicity study, the ability of compound 14av_amine16 to kill G. mellonella larvae was examined.
# [4] = test system: FtsZ GFP fusion stain of B. subtilis 168; experiment: Z-ring visualization, GFP tagged FtsZ in B. subtilis 168; type: cell-based; details: 6 μM test compound, 4 hours
# Experimental: Procedure: A single colony of FtsZ GFP fusion stain of B. subtilis 168 was grown in 5 ml 2×TY medium with 35 mg/L chloramphenicol for 14 hours at 30° C. An overnight culture was then diluted to an OD600 of 0.01 by 2×TY medium containing the absence (DMSO) and presence of 6 μM test compounds and 40 μM of IPTG, it grew at 30° C. after 4 hours of incubation; the cells were pelleted and re-suspended in 300 μL PBS buffer containing 1% agarose. 10 μL suspensions were then placed on the microscopic slide. The morphology of bacterial cell was observed under a fluorescent and phase-contrast microscope at 40× magnification, using the software of Olympus FSX100® Bio Imaging Navigator to capture images.
smiles,measurement,setting,value
"CCC(CC)c1cc(CCN2CCCN(Cc3ccc(C(F)(F)F)cc3)CC2)nc(-c2ccncc2)n1 [Compound 14av_amine16, 1-(2-(6-(pentan-3-yl)-2-(pyridin-4-yl)pyrimidin-4-yl)ethyl)-4-(4-(trifluoromethyl)benzyl)-1,4-diazepane]",MIC,[1],12 µM
same,MIC,[2],12 µM
same,ability to kill G. mellonella larvae (toxicity),[3],did not kill G. mellonella larvae
same,Z-ring localization,[4],obvious mislocalization of the Z-ring
